Test results: ChEMBL document CHEMBL1150207, “Cytotoxicities of some flavonoid analogues” (1991)
≈ marks a conversion by molar mass, not a printed value.

What was measured:
Assay type in all cases: functional
Malme-3M = experiment: Cytotoxicity against human MALME-3M cells after 6 days by MTT assay; details: 144 h, read-out: ED50 (the source's name)
MCF7 = experiment: Cytotoxicity against human MCF7 cells after 6 days by MTT assay; details: MCF7, 144 h, read-out: ED50 (the source's name)
A549 = experiment: Cytotoxicity against human A549 cells after 6 days by MTT assay; details: A549, 144 h, read-out: ED50 (the source's name)
HT-29 = experiment: Cytotoxicity against human HT-29 cells after 6 days by MTT assay; details: HT-29, 144 h, read-out: ED50 (the source's name)
SK-MEL = experiment: Cytotoxicity against human SK-MEL cells after 6 days by MTT assay; details: 144 h, read-out: ED50 (the source's name)

SMILES | EC50 (Malme-3M) | EC50 (MCF7) | EC50 (A549) | EC50 (HT-29) | EC50 (SK-MEL)
COc1ccc2oc(-c3cc(OC)c(OC)c(OC)c3)cc(=O)c2c1 | > 25 µg/mL | > 25 µg/mL | > 25 µg/mL | > 25 µg/mL | > 25 µg/mL
COc1cc(-c2cc(=O)c3ccc(OC(C)=O)c(OC(C)=O)c3o2)cc(OC)c1O[Si](C)(C)C(C)(C)C | 0.31 µg/mL (≈ 0.586 µM) | > 25 µg/mL | > 25 µg/mL | > 25 µg/mL | 0.14 µg/mL (≈ 0.265 µM)
O=C(O)c1c(-c2ccc(Br)cc2)oc2ccccc2c1=O | > 25 µg/mL | > 25 µg/mL | > 25 µg/mL | > 25 µg/mL | > 25 µg/mL
COC(=O)c1c(-c2ccc(NC(C)=O)cc2)oc2cc(OC)ccc2c1=O | 9.26 µg/mL (≈ 25.2 µM) | 9.19 µg/mL (≈ 25 µM) | 9.76 µg/mL (≈ 26.6 µM) | 8.21 µg/mL (≈ 22.3 µM) | 15.9 µg/mL (≈ 43.4 µM)
COC(=O)c1c(-c2ccc(Br)cc2)oc2ccccc2c1=O | > 25 µg/mL | > 25 µg/mL | > 25 µg/mL | > 25 µg/mL | > 25 µg/mL
COc1cc(-c2cc(=O)c3ccc(O)c(O)c3o2)cc(OC)c1O | > 25 µg/mL | > 25 µg/mL | > 25 µg/mL | 5.12 µg/mL (≈ 15.5 µM) | 6.33 µg/mL (≈ 19.2 µM)
COc1cc(-c2cc(=O)c3cc(O)ccc3o2)cc(OC)c1O[Si](C)(C)C(C)(C)C | 5.3 µg/mL (≈ 12.4 µM) | 2.01 µg/mL (≈ 4.69 µM) | 3.19 µg/mL (≈ 7.44 µM) | 2.63 µg/mL (≈ 6.14 µM) | 2.95 µg/mL (≈ 6.88 µM)
COC(=O)c1c(-c2ccc([N+](=O)[O-])cc2)oc2ccc(OC)cc2c1=O | 24.1 µg/mL (≈ 67.8 µM) | > 25 µg/mL | > 25 µg/mL | > 25 µg/mL | 8.18 µg/mL (≈ 23 µM)
COc1cc(-c2cc(=O)c3cc(O)ccc3o2)cc(OC)c1O | > 25 µg/mL | > 25 µg/mL | > 25 µg/mL | > 25 µg/mL | 5.68 µg/mL (≈ 18.1 µM)
COc1cc(-c2cc(=O)c3c(O)cccc3o2)cc(OC)c1O | > 25 µg/mL | 0.51 µg/mL (≈ 1.62 µM) | 0.74 µg/mL (≈ 2.35 µM) | > 25 µg/mL | > 25 µg/mL
COC(=O)c1c(-c2ccc(OCc3ccccc3)cc2)oc2ccccc2c1=O | > 25 µg/mL | > 25 µg/mL | > 25 µg/mL | > 25 µg/mL | > 25 µg/mL
COC(=O)c1c(-c2cc(OC)cc(OC)c2)oc2ccccc2c1=O | > 25 µg/mL | > 25 µg/mL | > 25 µg/mL | 6.99 µg/mL (≈ 20.5 µM) | > 25 µg/mL
COC(=O)c1c(-c2ccc(OCc3ccccc3)cc2)oc2ccc(OC)cc2c1=O | > 25 µg/mL | > 25 µg/mL | 22.1 µg/mL (≈ 53 µM) | 15.6 µg/mL (≈ 37.4 µM) | 20.9 µg/mL (≈ 50.1 µM)
O=c1cc(-c2ccc([N+](=O)[O-])cc2)oc2c(O)c(O)ccc12 | 3.61 µg/mL (≈ 12.1 µM) | 4.69 µg/mL (≈ 15.7 µM) | 2.56 µg/mL (≈ 8.56 µM) | 3.46 µg/mL (≈ 11.6 µM) | 3.29 µg/mL (≈ 11 µM)
COc1ccc2oc(-c3ccc([N+](=O)[O-])cc3)c(C(=O)O)c(=O)c2c1 | > 25 µg/mL | 15.8 µg/mL (≈ 46.4 µM) | > 25 µg/mL | > 25 µg/mL | > 25 µg/mL
COC(=O)c1c(-c2ccc([N+](=O)[O-])cc2)oc2ccccc2c1=O | > 25 µg/mL | > 25 µg/mL | > 25 µg/mL | > 25 µg/mL | > 25 µg/mL
COC(=O)c1c(-c2ccc(N)cc2)oc2ccccc2c1=O | > 25 µg/mL | > 25 µg/mL | > 25 µg/mL | > 25 µg/mL | > 25 µg/mL
Nc1ccc(-c2cc(=O)c3c(O)cc(O)cc3o2)cc1 | > 25 µg/mL | > 25 µg/mL | 2.84 µg/mL (≈ 10.5 µM) | 3.44 µg/mL (≈ 12.8 µM) | 3.86 µg/mL (≈ 14.3 µM)
COC(=O)c1c(-c2ccc([N+](=O)[O-])cc2)oc2cc(OC)ccc2c1=O | 1.12 µg/mL (≈ 3.15 µM) | > 25 µg/mL | > 25 µg/mL | > 25 µg/mL | 2.84 µg/mL (≈ 7.99 µM)
COC(=O)c1c(-c2cc(OC)c(OC)c(OC)c2)oc2ccccc2c1=O | > 25 µg/mL | > 25 µg/mL | > 25 µg/mL | > 25 µg/mL | > 25 µg/mL
COc1cc(-c2cc(=O)c3ccc(OC(C)=O)cc3o2)cc(OC)c1O | > 25 µg/mL | > 25 µg/mL | > 25 µg/mL | > 25 µg/mL | > 25 µg/mL
COC(=O)c1c(-c2ccc(OC)c(OC)c2)oc2ccccc2c1=O | > 25 µg/mL | > 25 µg/mL | > 25 µg/mL | > 25 µg/mL | > 25 µg/mL
COc1cc(-c2cc(=O)c3ccc(O)c(O)c3o2)cc(OC)c1OC | > 25 µg/mL | 1.11 µg/mL (≈ 3.22 µM) | 5.27 µg/mL (≈ 15.3 µM) | 3.66 µg/mL (≈ 10.6 µM) | > 25 µg/mL
COC(=O)c1c(-c2ccc(O)cc2)oc2ccc(OC)cc2c1=O | > 25 µg/mL | > 25 µg/mL | > 25 µg/mL | > 25 µg/mL | 18.7 µg/mL (≈ 57.3 µM)
COc1cc(OC)cc(-c2oc3ccccc3c(=O)c2C(=O)O)c1 | > 25 µg/mL | > 25 µg/mL | > 25 µg/mL | > 25 µg/mL | > 25 µg/mL
O=c1cc(-c2cccc(O)c2)oc2ccc(O)cc12 | > 25 µg/mL | > 25 µg/mL | > 25 µg/mL | > 25 µg/mL | > 25 µg/mL
